Assay results taken from US11679107B2 (Eisai R&D Management Co., Ltd., priority 2018, dated 2023).
Like-named read-outs stand apart in the source and are kept apart here.

Key:
SF3b complexes = target: T1, SF3b complexes (Homo sapiens, UniProt O75533+Q7RTV0); assay: Scintillation proximity assay (SPA) with [3H]-labelled pladienolide probe; format: binding; conditions: SF3B1 (WT); geometric mean; read-out: SPA-ATS GMean IC50 (nM) SF3B1 (WT)
T1 construct: endogenous in cells; host or cells: Nuclear extracts; A HeLa S3 extract preparation is described for the in vitro splicing assay
Summary of the method: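 SF3b complexes captured from nuclear extracts on anti-SF3B1 antibody SPA beads; test compounds pre-incubated 30 min before 2.5 nM [3H]-pladienolide probe added, then 30 min incubation. Bound probe read by scintillation; values from non-linear regression of concentration–response curves.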

[1] = test system: Ad2 variant pre-mRNAs spliced in HeLa S3 nuclear extracts; assay: In vitro splicing assay (IVS), RT-qPCR of spliced product; format: biochemical; conditions: for IC50: geometric mean; for Ratio Ad2.1/2.2: ratio of IVS IC50 Ad2.1 to Ad2.2
Summary of the method: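 Read-out is one-step TaqMan RT-qPCR of spliced Ad2 mRNA with Ftz as reference, normalized to DMSO and fit by non-linear regression. Reactions held HeLa S3 nuclear extract, 2 ng Ad2-derived pre-mRNA and test compound, with 15 min preincubation. Splicing was started with ATP-containing activation buffer and run 90 min at 30 °C.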

[2] = test system: NCI-H1568 cells (high MCL1); assay: Cell proliferation and viability, CellTiter-Glo, 72 hours; format: cell-based; conditions: for GI50: geometric mean
Summary of the method: (§1)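 ATP luminescence (CellTiter-Glo) was measured 72 h after treatment with compound at 10 μM–100 pM (11 points, half-log) in 0.1% DMSO. The Panc line was grown in RPMI-1640 plus insulin and 15% FBS, the other in 10% FBS. Data were normalised to time zero and vehicle controls, where −100% is cidal and 0% static.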

[3] = test system: Panc 05.04 cells (SF3b K700E mutant); assay: as above; format: cell-based; conditions: for GI50: geometric mean
Summary of the method: as §1

[4] = Ad2.1 pre-mRNA substrate, read-out: qPCR-IVS-ATS GMean IC50 (nM) Ad2.1
[5] = Ad2.2 pre-mRNA substrate, read-out: qPCR-IVS-ATS GMean IC50 (nM) Ad2.2
[6] = NCI-H1568, read-out: CTGlo-ATS GMean GI50 (nM) 72 h NCIH1568.1, NCIH1568.1 cells, 72 h
[7] = NCIH1568.1 cells, 72 h, −100% cidal, 0% static, 100% maximal growth
[8] = PANC0504.1 cells, 72 h, −100% cidal, 0% static, 100% maximal growth
[9] = Panc 05.04, read-out: CTGlo-ATS GMean GI50 (nM) 72 h PANC0504.1, PANC0504.1 cells, 72 h
[10] = NCI-H1568, 72 h, read-out: CTGlo-ATS GMean GI50 (nM) 72 h NCIH1568.1, NCIH1568.1 cells, 72 h
[11] = Panc 05.04, 72 h, read-out: CTGlo-ATS GMean GI50 (nM) 72 h PANC0504.1, PANC0504.1 cells, 72 h
[12] = 72 h, NCIH1568.1, -100% = cidal, 0% = static, 100% = uninhibited growth
[13] = 72 h, PANC0504.1, -100% = cidal, 0% = static, 100% = uninhibited growth

| SMILES | IC50 (SF3b complexes) [nM] | IC50 [1, 4] [nM] | IC50 [1, 5] [nM] | GI50 [2, 6] [nM] | CTGlo-ATS Mean MinResponse % 72 h NCIH1568.1 [2, 7] [%] | CTGlo-ATS Mean MinResponse % 72 h PANC0504.1 [3, 8] [%] | GI50 [3, 9] [nM] | GI50 [2, 10] [nM] | GI50 [3, 11] [nM] | Ratio Ad2.1/2.2 [1] | CTGlo-ATS Mean MinResponse % 72 h NCIH1568.1 [2, 12] [%] | GI50 ([2]; NCI-H1568, 72 h, read-out: CTGlo-ATS GMean GI50 (nM) 72 h NCIH1568.1, 72 h, NCIH1568.1) [nM] | CTGlo-ATS Mean MinResponse % 72 h PANC0504.1 [3, 13] [%] | GI50 ([3]; Panc 05.04, 72 h, read-out: CTGlo-ATS GMean GI50 (nM) 72 h PANC0504.1, 72 h, PANC0504.1) [nM] | GI50 ([2]; NCI-H1568, read-out: CTGlo-ATS GMean GI50 (nM) 72 h NCIH1568.1, 72 h, NCIH1568.1) [nM] | GI50 ([3]; Panc 05.04, read-out: CTGlo-ATS GMean GI50 (nM) 72 h PANC0504.1, 72 h, PANC0504.1) [nM] |
| --- | --- | --- | --- | --- | --- | --- | --- | --- | --- | --- | --- | --- | --- | --- | --- | --- |
| C/C(=C\c1cc(F)c2nnn(C3CCOCC3)c2c1)[C@H]1OC(=O)C[C@H](O)CC[C@H](C)[C@@H](OC(=O)N2CCN(C)CC2)/C=C/[C@@H]1C [Compound 140] | 1.73 | 11.6 | 11.8 | 1.25 | −82.434 | −80.398 | 1.63 |  |  |  |  |  |  |  |  |  |
| C/C(=C\c1cc(F)cc(N2CCS(=O)(=O)CC2)c1)[C@H]1OC(=O)C[C@H](O)CC[C@H](C)[C@@H](OC(=O)N(C)C)/C=C/[C@@H]1C [Compound 51] | 19.7 | > 25000 | 88.1 | 112 | −31.962 | −78.388 | 80.9 |  |  |  |  |  |  |  |  |  |
| CC(=O)N1CCC(n2nnc3c(F)cc(/C=C(\C)[C@H]4OC(=O)C[C@H](O)CC[C@H](C)[C@@H](OC(=O)N5CCN(C)CC5)/C=C/[C@@H]4C)cc32)CC1 [Compound 160] | 1.65 | 4.68 | 4.69 | 0.896 | −86.403 | −82.399 | 1.15 |  |  |  |  |  |  |  |  |  |
| C/C(=C\c1cc(F)cc(N(C)C2COC2)c1)[C@H]1OC(=O)C[C@H](O)CC[C@H](C)[C@@H](OC(=O)N2CCN(C)CC2)/C=C/[C@@H]1C [Compound 169] | 1.43 | 96.6 | 19.8 | 8.26 | −66.086 | −90.232 | 8.9 |  |  |  |  |  |  |  |  |  |
| C/C(=C\c1cc(F)cc(N2CCN(C(=O)c3cn(C)cn3)CC2)c1)[C@H]1OC(=O)C[C@H](O)CC[C@H](C)[C@@H](OC(=O)N2CCN(C)CC2)/C=C/[C@@H]1C [Compound 120] | 3.97 | 25.3 | 26.5 |  | −75.164 | −78.098 |  | 11.2 | 9.42 |  |  |  |  |  |  |  |
| C/C(=C\c1cc(F)cc(N2CCNC2=O)c1)[C@H]1OC(=O)C[C@H](O)CC[C@H](C)[C@@H](OC(=O)N2CCN(C)CC2)/C=C/[C@@H]1C [Compound 64] | 3.08 | 116 | 24.4 | 6.5 | −66.274 | −92.050 | 7.96 |  |  |  |  |  |  |  |  |  |
| C/C(=C\c1cc(F)cc(N(C)C2CCOCC2)c1)[C@H]1OC(=O)C[C@H](O)CC[C@H](C)[C@@H](OC(=O)N2CCN(C)CC2)/C=C/[C@@H]1C [Compound 168] | 3.05 | 27.6 | 16.5 | 5.96 | −75.760 | −86.930 | 10.4 |  |  |  |  |  |  |  |  |  |
| C/C(=C\c1cc(F)cc(N2CCC[C@@H]2C)c1)[C@H]1OC(=O)C[C@H](O)CC[C@H](C)[C@@H](OC(=O)N2CCN(C)CC2)/C=C/[C@@H]1C [Compound 43] | 12 | > 25000 | 139 |  | −36.254 | −88.777 |  | 89.1 | 57.5 |  |  |  |  |  |  |  |
| C/C(=C\c1cc(F)cc(N2CCN(C(=O)C3CCOCC3)CC2)c1)[C@H]1OC(=O)C[C@H](O)CC[C@H](C)[C@@H](OC(=O)N2CCN(C)CC2)/C=C/[C@@H]1C [Compound 118] | 3.76 | 22 | 19.9 |  | −82.113 | −79.169 |  | 3 | 4.55 |  |  |  |  |  |  |  |
| C/C(=C\c1cc(F)cc(N2CCC[C@@H]2CO)c1)[C@H]1OC(=O)C[C@H](O)CC[C@H](C)[C@@H](OC(=O)N2CCN(C)CC2)/C=C/[C@@H]1C [Compound 44] | 8.26 | 12800 | 86.6 |  | −14.871 | −92.314 |  | 67.2 | 41.5 |  |  |  |  |  |  |  |
| C/C(=C\c1cccc(COC(=O)N2CCOCC2)c1)[C@H]1OC(=O)C[C@H](O)CC[C@H](C)[C@@H](OC(=O)N2CCN(C)CC2)/C=C/[C@@H]1C [Compound 257, [3-[(E)-2-[(2S,3S,4E,6R,7S,10R)-10-hydroxy-3,7-dimethyl-6-(4-methylpiperazine-1-carbonyl)oxy-12-oxo-1-oxacyclododec-4-en-2-yl]prop-1-enyl]phenyl]methyl morpholine-4-carboxylate] | 5.75 | > 25000 | 117 |  |  |  |  |  |  | 213.903 | −4.151 | 266 | −75.412 | 71.5 |  |  |
| C/C(=C\c1cccc(N2CCNCC2)c1)[C@H]1OC(=O)C[C@H](O)CC[C@H](C)[C@@H](OC(=O)N2CCN(C)CC2)/C=C/[C@@H]1C [Compound 1] | 19.8 | 28.9 | 18.7 | 61.2 | −71.582 | −79.550 | 54.8 |  |  |  |  |  |  |  |  |  |
| C/C(=C\c1cc(F)cc(-n2ccnc2)c1)[C@H]1OC(=O)C[C@H](O)CC[C@H](C)[C@@H](OC(=O)N2CCN(C)CC2)/C=C/[C@@H]1C [Compound 60] | 2.99 | > 25000 | 55.5 | 29.9 | −42.456 | −87.159 | 26.7 |  |  |  |  |  |  |  |  |  |
| C/C(=C\c1cccc2c1c(C)nn2C)[C@H]1OC(=O)C[C@H](O)CC[C@H](C)[C@@H](OC(=O)N2CCN(C)CC2)/C=C/[C@@H]1C [Compound 97] | 240 | > 25000 | 2890 | 4370 | 11.801 | 46.987 | 9140 |  |  |  |  |  |  |  |  |  |
| C/C(=C\c1cc(F)cc(N2CCOCC2)c1)[C@H]1OC(=O)C[C@H](O)CC[C@H](C)[C@@H](OC(=O)NCCN(C)C)/C=C/[C@@H]1C [Compound 242, [(2S,3S,4E,6R,7S,10R)-2-[(E)-1-(3-fluoro-5-morpholin-4-ylphenyl)prop-1-en-2-yl]-10-hydroxy-3,7-dimethyl-12-oxo-1-oxacyclododec-4-en-6-yl] N-[2-(dimethylamino)ethyl]carbamate] | 15.3 | 7150 | 62.1 |  |  |  |  |  |  | 115.051 | −65.744 |  | −92.786 |  | 180 | 68.9 |
| C/C(=C\c1cc(F)cc(N2CCN(CCN3CCOCC3)C2=O)c1)[C@H]1OC(=O)C[C@H](O)CC[C@H](C)[C@@H](OC(=O)N2CCN(C)CC2)/C=C/[C@@H]1C [Compound 67] | 1.95 | 22.7 | 20.2 | 8.6 | −75.182 | −87.661 | 7.27 |  |  |  |  |  |  |  |  |  |
| C/C(=C\c1cc(F)cc(N2CCN(CCO)CC2)c1)[C@H]1OC(=O)C[C@H](O)CC[C@H](C)[C@@H](OC(=O)N(C)C2CCN(C)CC2)/C=C/[C@@H]1C [Compound 54] | 4.29 | 12.4 | 15.8 | 7.81 | −96.584 | −94.487 | 8.66 |  |  |  |  |  |  |  |  |  |
